Assay results reported in publication PMC9000575, “Solution Equilibrium Studies on Salicylidene Aminoguanidine Schiff Base Metal Complexes: Impact of the Hybridization with L-Proline on Stability, Redox Activity and Cytotoxicity” (Molecules, 2022).

Legend:
[1] = stability constants of Fe(II) complexes by pH-potentiometry; format: physicochemical; conditions: 30% (v/v) DMSO/H2O; for logβ [Fe(II)LH−1] / logβ [Fe(II)LH−2]− / logβ [Fe(II)L]+: 25 °C, I = 0.10 M (KCl), anaerobic; for pFe(II) (−log[Fe(II)]): calculated at pH 7.4, cFe = 1 μM, cligand = 10 μM
Experimental: Complexation with Fe(II) was studied under strictly anaerobic conditions. […] Aside from the better solubility of the Pro-SISC-Me complexes, the two ligands behaved similarly and the difference between their Fe(II)-binding efficacy was minor.
The pH-potentiometric measurements for the determination of the proton dissociation constants of the ligands and the overall stability constants of the metal complexes were carried out at 25.0 ± 0.1 °C in water or in 30% (v/v) DMSO/H2O as solvent and at an ionic strength of 0.10 M (KCl). The titrations were performed with carbonate-free KOH solution of known concentration (0.10 M). The concentrations of the base and the HCl were determined by pH-potentiometric titrations. An Orion 710A pH-meter equipped with a Metrohm combined electrode (type 6.0234.100), and a Metrohm 665 Dosimat burette were used for the titrations. […] The average water ionization constant pKw was 13.76 ± 0.05 (water) or 14.52 ± 0.05 (30% (v/v) DMSO/H2O). The pH-potentiometric titrations were performed in the pH range 2.0–12.5. The initial volume of the samples was 10.0 mL. The ligand concentration was 2 mM and metal ion-to-ligand ratios of 1:1–1:3 were used. The accepted fitting of the titration curves was always less than 0.01 mL. Argon was always passed over the solutions during the titrations. The exact concentration of the ligand stock solutions together with the proton dissociation constants were determined by pH-potentiometric titrations with the use of the computer program HYPERQUAD [44]. It was also utilized to establish the stoichiometry of the complexes and to calculate the stability constants (β(MpLqHr)). β(MpLqHr) is defined for the general equilibrium pM + qL + rH ⇋ MpLqHr as β(MpLqHr) = [MpLqHr]/[M]^p[L]^q[H]^r, where M denotes the metal ion and L the completely deprotonated ligand. In all calculations exclusively, titration data were used from experiments in which no precipitate was visible in the reaction mixture.

[2] = stability constants of Cu(II) complexes from deconvolution of EPR spectra; format: physicochemical; conditions: water, room temperature, I = 0.10 M (KCl)
Experimental: All EPR spectra were recorded with a BRUKER EleXsys E500 spectrometer (microwave frequency 9.54 GHz, microwave power 13 mW, modulation amplitude 5 G, modulation frequency 100 kHz, Bruker BioSpin Corporation, Billerica, MA, USA) at 77 K for the Cu(II)—SISC complexes and at room temperature for the Cu(II)—Pro-SISC-Me species. EPR spectra were recorded at different pH values at two metal-to-ligand concentration ratios: 0.25 mM Cu(II) and 0.25 mM or 0.50 mM SISC in 30% DMSO/water solution, and 1.0 mM Pro-SISC-Me and 1.0 mM or 0.5 mM Cu(II) in water. The ionic strength was adjusted with KCl (I = 0.1 M). KOH solution was added to the stock solution to change the pH between pH = 2.5–12.5, which was measured with a Radiometer PHM240 pH/ion Meter equipped with a Metrohm 6.0234.100 glass electrode. The isotropic EPR spectra were recorded at room temperature in a circulating system, and a Heidolph Pumpdrive 5101 peristaltic pump was used to circulate the solution from the titration vessel through a capillary tube into the cavity of the instrument. For the anisotropic EPR spectra, a pH titration was performed outside of the cavity and at selected pH values, and 200 μL samples were transferred from the titration vessel into EPR tubes and the spectra were recorded in a Dewar containing liquid nitrogen.
The anisotropic EPR spectra were analyzed with the EPR program. […]

logβ [Fe(II)LH−1] [1] | logβ [Fe(II)LH−2]− [1] | logβ [Fe(II)L]+ [1] | pFe(II) (−log[Fe(II)]) [1] | logβ [CuLH−1] [2] | logβ [CuL]+ [2] | SMILES
−1.08 ± 0.05 | <−11 | 6.83 ± 0.04 | 6.1 | 6.50 | 14.78 | Cc1cc(C=NNC(=N)N)c(O)c(CN2CCCC2C(=O)O)c1 (stereo not shown) [Pro-SISC-Me]
−0.73 ± 0.07 | −8.94 ± 0.08 | 7.20 ± 0.06 | 6.0 |  |  | N=C(N)NN=Cc1ccccc1O [SISC, 2-(2-hydroxybenzylidene)hydrazinecarboximidamide]
